Assay results taken from PubChem BioAssay AID2060493 (Molecular Pharmacology Branch, DTP, NCI, 2025).

Test system: 616215-338-R-J1-PDC tumor spheroids, viability
Experiment: Anticancer human tumor 616215-338-R-J1-PDC patient-derived colon adenocarcinoma cell line growth inhibition [GQUAD]
Conditions: spheroids with HUVEC and MSC; for IC50: curve of first compound; for viability, T/C: stronger effect = lower value
Outline: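 Viability of tumor cells grown as complex spheroids with endothelial and stromal cells, exposed to drug combinations. Top concentration at or near clinical Cmax (else 10 microM), diluted in half-log increments.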

[1] = second compound 0.0316 µM, first compound 0.0316 µM
[2] = second compound 0.0316 µM, first compound 0.1 µM
[3] = second compound 0.0316 µM, first compound 0.316 µM
[4] = second compound 0.0316 µM, first compound 1 µM
[5] = second compound 0.0316 µM, first compound 3.16 µM
[6] = second compound 0.0316 µM, first compound 10 µM
[7] = second compound 0.1 µM, first compound 0.0316 µM
[8] = second compound 0.1 µM, first compound 0.1 µM
[9] = second compound 0.1 µM, first compound 0.316 µM
[10] = second compound 0.1 µM, first compound 1 µM
[11] = second compound 0.1 µM, first compound 3.16 µM
[12] = second compound 0.1 µM, first compound 10 µM
[13] = second compound 0.316 µM, first compound 0.0316 µM
[14] = second compound 0.316 µM, first compound 0.1 µM
[15] = second compound 0.316 µM, first compound 0.316 µM
[16] = second compound 0.316 µM, first compound 1 µM
[17] = second compound 0.316 µM, first compound 3.16 µM
[18] = second compound 0.316 µM, first compound 10 µM
[19] = second compound 1 µM, first compound 0.0316 µM
[20] = second compound 1 µM, first compound 0.1 µM
[21] = second compound 1 µM, first compound 0.316 µM
[22] = second compound 1 µM, first compound 1 µM
[23] = second compound 1 µM, first compound 3.16 µM
[24] = second compound 1 µM, first compound 10 µM
[25] = second compound 3.16 µM, first compound 0.0316 µM
[26] = second compound 3.16 µM, first compound 0.1 µM
[27] = second compound 3.16 µM, first compound 0.316 µM
[28] = second compound 3.16 µM, first compound 1 µM
[29] = second compound 3.16 µM, first compound 3.16 µM
[30] = second compound 3.16 µM, first compound 10 µM
[31] = second compound 10 µM, first compound 0.0316 µM
[32] = second compound 10 µM, first compound 0.1 µM
[33] = second compound 10 µM, first compound 0.316 µM
[34] = second compound 10 µM, first compound 1 µM
[35] = second compound 10 µM, first compound 3.16 µM
[36] = second compound 10 µM, first compound 10 µM
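Also: spheroids exposed to agents for 7 days before readout.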
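For viability, T/C in this document: percent viability relative to DMSO vehicle control wells taken as 100%.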

With `CC1COCCN1c1cc(-c2ccnn2C)c2ccnc(-c3ccn[nH]3)c2n1` (stereo not drawn) + CN(C)c1ccc(Nc2c3ccc(NC(=O)CCN4CCCC4)cc3nc3cc(NC(=O)CCN4CCCC4)ccc23)cc1 the IC50 (second compound 0.0316 µM) was 157 nM, the IC50 (second compound 0.1 µM) was 147 nM and the IC50 (second compound 0.316 µM) was 164 nM. For the same molecule, the IC50 (second compound 1 µM) was 142 nM, the IC50 (second compound 3.16 µM) was 129 nM and the IC50 (second compound 10 µM) was 129 nM. It also gave a viability, T/C [1] of 99.1%, a viability, T/C [2] of 61.8% and a viability, T/C [3] of 31.1%. For the same molecule, the viability, T/C [4] was 25.6%, the viability, T/C [5] was 18.4% and the viability, T/C [6] was 21.6%. The viability, T/C [7] was 94.4%, the viability, T/C [8] was 58.5% and the viability, T/C [9] was 33.5%. The viability, T/C [10] was 21.2%, the viability, T/C [11] was 21.6% and the viability, T/C [12] was 22.4%. The viability, T/C [13] was 93%, the viability, T/C [14] was 65.4% and the viability, T/C [15] was 29.1%. It also gave a viability, T/C [16] of 23.1%, a viability, T/C [17] of 20.7% and a viability, T/C [18] of 18.6%. It also gave a viability, T/C [19] of 90.1%, a viability, T/C [20] of 55.5% and a viability, T/C [21] of 38.1%. The viability, T/C [22] was 22.6%, the viability, T/C [23] was 18.8% and the viability, T/C [24] was 25.7%. It also gave a viability, T/C [25] of 91.7%, a viability, T/C [26] of 55.6% and a viability, T/C [27] of 30.2%. It also gave a viability, T/C [28] of 23.8%, a viability, T/C [29] of 22.2% and a viability, T/C [30] of 16.7%. For the same molecule, the viability, T/C [31] was 88.4%, the viability, T/C [32] was 53.8% and the viability, T/C [33] was 35.8%. For the same molecule, the viability, T/C [34] was 24.2%, the viability, T/C [35] was 19.7% and the viability, T/C [36] was 18.5%.

`CC1COCCN1c1cc(C2(O)CC3CCC(C2)O3)c2cnn(-c3ccn[nH]3)c2n1` (stereo not drawn) + CN(C)c1ccc(Nc2c3ccc(NC(=O)CCN4CCCC4)cc3nc3cc(NC(=O)CCN4CCCC4)ccc23)cc1 gave an IC50 (second compound 0.0316 µM) of 184 nM, an IC50 (second compound 0.1 µM) of 213 nM and an IC50 (second compound 0.316 µM) of 196 nM. For the same molecule, the IC50 (second compound 1 µM) was 201 nM, the IC50 (second compound 3.16 µM) was 225 nM and the IC50 (second compound 10 µM) was 139 nM. For the same molecule, the viability, T/C [1] was 98.6%, the viability, T/C [2] was 63.5% and the viability, T/C [3] was 38.5%. It also gave a viability, T/C [4] of 24%, a viability, T/C [5] of 15.5% and a viability, T/C [6] of 18.4%. The viability, T/C [7] was 102%, the viability, T/C [8] was 72.7% and the viability, T/C [9] was 34.7%. It also gave a viability, T/C [10] of 30.3%, a viability, T/C [11] of 20.8% and a viability, T/C [12] of 15.2%. It also gave a viability, T/C [13] of 94.3%, a viability, T/C [14] of 64.7% and a viability, T/C [15] of 36.4%. The viability, T/C [16] was 31.9%, the viability, T/C [17] was 17.3% and the viability, T/C [18] was 15.3%. It also gave a viability, T/C [19] of 95.4%, a viability, T/C [20] of 72.5% and a viability, T/C [21] of 34.3%. The viability, T/C [22] was 24.1%, the viability, T/C [23] was 24.4% and the viability, T/C [24] was 11.7%. For the same molecule, the viability, T/C [25] was 99.5%, the viability, T/C [26] was 67.2% and the viability, T/C [27] was 41.3%. It also gave a viability, T/C [28] of 28.4%, a viability, T/C [29] of 25.2% and a viability, T/C [30] of 13.2%. The viability, T/C [31] was 84.7%, the viability, T/C [32] was 55.2% and the viability, T/C [33] was 35.2%. The viability, T/C [34] was 27.1%, the viability, T/C [35] was 24.2% and the viability, T/C [36] was 13.4%.

`CC1COCCN1c1cc(C2(S(C)(=N)=O)CC2)nc(-c2ccnc3[nH]ccc23)n1` (stereo not drawn) + CN(C)c1ccc(Nc2c3ccc(NC(=O)CCN4CCCC4)cc3nc3cc(NC(=O)CCN4CCCC4)ccc23)cc1 was tested, and the IC50 (second compound 0.0316 µM) was 2800 nM, the IC50 (second compound 0.1 µM) was 4910 nM and the IC50 (second compound 0.316 µM) was 5620 nM. The IC50 (second compound 1 µM) was 5200 nM, the IC50 (second compound 3.16 µM) was 5180 nM and the IC50 (second compound 10 µM) was 3470 nM. For the same molecule, the viability, T/C [1] was 116%, the viability, T/C [2] was 102% and the viability, T/C [3] was 103%. The viability, T/C [4] was 97.6%, the viability, T/C [5] was 44.4% and the viability, T/C [6] was 31.5%. The viability, T/C [7] was 105%, the viability, T/C [8] was 97% and the viability, T/C [9] was 104%. It also gave a viability, T/C [10] of 98%, a viability, T/C [11] of 63.5% and a viability, T/C [12] of 28.2%. It also gave a viability, T/C [13] of 98.1%, a viability, T/C [14] of 106% and a viability, T/C [15] of 102%. The viability, T/C [16] was 96.6%, the viability, T/C [17] was 69.9% and the viability, T/C [18] was 30.1%. For the same molecule, the viability, T/C [19] was 93.2%, the viability, T/C [20] was 97.3% and the viability, T/C [21] was 99.3%. The viability, T/C [22] was 95.9%, the viability, T/C [23] was 69.2% and the viability, T/C [24] was 24.8%. For the same molecule, the viability, T/C [25] was 99%, the viability, T/C [26] was 102% and the viability, T/C [27] was 94.3%. For the same molecule, the viability, T/C [28] was 97.7%, the viability, T/C [29] was 68.1% and the viability, T/C [30] was 25.9%. The viability, T/C [31] was 94%, the viability, T/C [32] was 94% and the viability, T/C [33] was 89.2%. For the same molecule, the viability, T/C [34] was 86.1%, the viability, T/C [35] was 51.7% and the viability, T/C [36] was 29.6%.

Molecule `COc1ccc([C@@H](O)c2cc(-c3ncnc4cc(N5CCOCC5)ccc34)c(F)cc2Cl)nn1` + CN(C)c1ccc(Nc2c3ccc(NC(=O)CCN4CCCC4)cc3nc3cc(NC(=O)CCN4CCCC4)ccc23)cc1 has an IC50 (second compound 0.0316 µM) of over 10000 nM, an IC50 (second compound 0.1 µM) of over 10000 nM and an IC50 (second compound 0.316 µM) of over 10000 nM. For the same molecule, the IC50 (second compound 1 µM) was 8160 nM, the IC50 (second compound 3.16 µM) was 6040 nM and the IC50 (second compound 10 µM) was 3400 nM. It also gave a viability, T/C [1] of 105%, a viability, T/C [2] of 99.2% and a viability, T/C [3] of 101%. It also gave a viability, T/C [4] of 98.1%, a viability, T/C [5] of 93.1% and a viability, T/C [6] of 58.6%. For the same molecule, the viability, T/C [7] was 96.3%, the viability, T/C [8] was 94.6% and the viability, T/C [9] was 104%. The viability, T/C [10] was 102%, the viability, T/C [11] was 87.6% and the viability, T/C [12] was 55.6%. It also gave a viability, T/C [13] of 101%, a viability, T/C [14] of 93% and a viability, T/C [15] of 102%. The viability, T/C [16] was 103%, the viability, T/C [17] was 97.7% and the viability, T/C [18] was 54.6%. The viability, T/C [19] was 97.7%, the viability, T/C [20] was 100% and the viability, T/C [21] was 94.3%. The viability, T/C [22] was 92.7%, the viability, T/C [23] was 89.1% and the viability, T/C [24] was 41.3%. It also gave a viability, T/C [25] of 91%, a viability, T/C [26] of 89.9% and a viability, T/C [27] of 90.4%. For the same molecule, the viability, T/C [28] was 101%, the viability, T/C [29] was 74.9% and the viability, T/C [30] was 30.6%. The viability, T/C [31] was 91.3%, the viability, T/C [32] was 90.8% and the viability, T/C [33] was 93.7%. It also gave a viability, T/C [34] of 64.2%, a viability, T/C [35] of 57.6% and a viability, T/C [36] of 10.2%.
